Where two headings read alike, the source gives them in different places.
Experiments:
[1] = system: p-SLP-76 (Ser376) in Jurkat cells; experiment: pSLP76 Cellular Assay (AlphaLISA SureFire Ultra p-SLP-76 (Ser376), anti-CD3 activated Jurkat cells); type: cell-based; details: Homo sapiens; Jurkat cells, anti-CD3 stimulation, pSLP76; read-out: Cellular Potency
Method in brief: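 Read-out is AlphaLISA p-SLP-76 (Ser376) signal at 570 nm in Jurkat lysates, with IC50 fitted by 4-parameter logistic. Cells were starved overnight, exposed 1 h at 37 °C to 22 twofold compound dilutions in HBSS, then activated 45 min with anti-CD3 (0.025 mg/ml stock added).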

HPK1 = HPK1 (Homo sapiens, UniProt Q92918); experiment: HPK1 Biochemical Assay (ADP-Glo luminescence; low ATP 10 μM or high ATP 200 μM)
HPK1, sequence (Q92918 whole entry, species assumed): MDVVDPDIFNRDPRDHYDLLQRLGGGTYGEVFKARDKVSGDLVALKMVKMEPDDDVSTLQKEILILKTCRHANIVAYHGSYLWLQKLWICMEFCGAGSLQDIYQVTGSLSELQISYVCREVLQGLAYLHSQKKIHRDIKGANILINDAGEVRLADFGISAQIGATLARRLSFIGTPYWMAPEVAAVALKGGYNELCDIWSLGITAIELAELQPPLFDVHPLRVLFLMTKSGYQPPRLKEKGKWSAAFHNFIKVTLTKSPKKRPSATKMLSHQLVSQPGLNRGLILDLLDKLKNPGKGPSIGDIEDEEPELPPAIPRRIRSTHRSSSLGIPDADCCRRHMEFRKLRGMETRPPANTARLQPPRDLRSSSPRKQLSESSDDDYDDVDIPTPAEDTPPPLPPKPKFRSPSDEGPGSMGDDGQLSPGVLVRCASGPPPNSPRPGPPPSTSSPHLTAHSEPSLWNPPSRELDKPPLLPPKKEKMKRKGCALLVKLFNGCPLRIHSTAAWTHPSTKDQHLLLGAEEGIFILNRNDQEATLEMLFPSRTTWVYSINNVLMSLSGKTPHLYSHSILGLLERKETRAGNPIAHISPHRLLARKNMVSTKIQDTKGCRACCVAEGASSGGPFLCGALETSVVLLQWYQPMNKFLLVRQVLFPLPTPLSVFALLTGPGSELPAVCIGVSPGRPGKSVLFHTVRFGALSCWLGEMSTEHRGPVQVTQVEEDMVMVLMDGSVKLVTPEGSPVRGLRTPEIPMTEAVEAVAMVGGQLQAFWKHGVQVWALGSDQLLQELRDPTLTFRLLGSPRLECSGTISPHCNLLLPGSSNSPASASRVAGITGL

[2] = 2 nM HPK1, 10 μM ATP, read-out: Biochemical Potency (low ATP)

Compound | IC50 [1] [nM] | IC50 (HPK1; [2]) [nM] | IC50 (HPK1; 5 nM HPK1, 200 μM ATP, read-out: Biochemical Potency (high ATP)) [nM]
Cc1cccnc1-c1nc2cc(Nc3ccc(C)c(N4C[C@@H]5C[C@H]4CN5C)n3)ncc2s1 [Example 101, 5-Methyl-6-[(1S,4S)-5-methyl-2,5-diazabicyclo[2.2.1]heptan-2-yl]-N-[2-(3-methylpyridin-2-yl)-[1,3]thiazolo[5,4-c]pyridin-6-yl]pyridin-2-amine] | 100 to 1000 | < 100 | –
Cc1cccnc1-c1nc2cc(Nc3nc(N4C[C@@H]5C[C@H]4CN5C)ccc3F)ncc2s1 [Example 109, 3-Fluoro-6-[(1S,4S)-5-methyl-2,5-diazabicyclo[2.2.1]heptan-2-yl]-N-[2-(3-methylpyridin-2-yl)-[1,3]thiazolo[5,4-c]pyridin-6-yl]pyridin-2-amine] | 1000 to 5000 | < 100 | –
Cc1cccnc1-c1nc2cc(Nc3ccc(Cl)c(N4C[C@@H]5C[C@H]4CN5C)n3)ncc2s1 [Example 110, 5-Chloro-6-[(1S,4S)-5-methyl-2,5-diazabicyclo[2.2.1]heptan-2-yl]-N-[2-(3-methylpyridin-2-yl)-[1,3]thiazolo[5,4-c]pyridin-6-yl]pyridin-2-amine] | 100 to 1000 | < 100 | –
Cc1cccnc1-c1nc2cc(Nc3ccc(C)c(N4C[C@@H]5CCN(C)[C@@H]5C4)n3)ncc2s1 [Example 112, 6-[(3aS,6aS)-1-Methyl-octahydropyrrolo[3,4-b]pyrrol-5-yl]-5-methyl-N-[2-(3-methylpyridin-2-yl)-[1,3]thiazolo[5,4-c]pyridin-6-yl]pyridin-2-amine] | > 5000 | < 100 | –
Cc1cccnc1-c1nc2cc(Nc3cccc(N4CCN5CCC[C@@H]5C4)n3)ncc2s1 [Example 114, 6-[(8aR)—Octahydropyrrolo[1,2-a]pyrazin-2-yl]-N-[2-(3-methylpyridin-2-yl)-[1,3]thiazolo[5,4-c]pyridin-6-yl]pyridin-2-amine] | > 5000 | < 100 | –
Cc1cccnc1-c1nc2cc(Nc3cccc(C4CCN(C)CC4)n3)ncc2s1 [Example 115, 6-(1-Methylpiperidin-4-yl)-N-[2-(3-methylpyridin-2-yl)-[1,3]thiazolo[5,4-c]pyridin-6-yl]pyridin-2-amine] | > 5000 | < 100 | –
Cc1cccnc1-c1nc2cc(Nc3cccc(N4C[C@@H]5C[C@H]4CN5C(C)C)n3)ncc2s1 [Example 116, N-[2-(3-Methylpyridin-2-yl)-[1,3]thiazolo[5,4-c]pyridin-6-yl]-6-[(1S,4S)-5-(propan-2-yl)-2,5-diazabicyclo[2.2.1]heptan-2-yl]pyridin-2-amine] | 1000 to 5000 | < 100 | –
Cc1cccnc1-c1nc2cc(Nc3cc(F)cc(N4C[C@@H]5C[C@H]4CN5C)n3)ncc2s1 [Example 119, 4-Fluoro-6-[(1S,4S)-5-methyl-2,5-diazabicyclo[2.2.1]heptan-2-yl]-N-[2-(3-methylpyridin-2-yl)-[1,3]thiazolo[5,4-c]pyridin-6-yl]pyridin-2-amine] | 100 to 1000 | < 100 | –
CC(C)(O)c1cc(-c2nc3cc(Nc4ccnc(N5C[C@@H]6C[C@H]5CN6)n4)ncc3s2)ccn1 [Example 120, 2-{4-[6-({2-[(1S,4S)-2,5-Diazabicyclo[2.2.1]heptan-2-yl]pyrimidin-4-yl}amino)-[1,3]thiazolo[5,4-c]pyridin-2-yl]pyridin-2-yl}propan-2-ol] | 100 to 1000 | < 100 | –
CN1C[C@@H]2C[C@H]1CN2c1cccc(Nc2cc3nc(-c4cccc(C(N)=O)c4)sc3cn2)n1 [Example 128, 3-[6-({6-[(1S,4S)-5-Methyl-2,5-diazabicyclo[2.2.1]heptan-2-yl]pyridin-2-yl}amino)-[1,3]thiazolo[5,4-c]pyridin-2-yl]benzamide] | 100 to 1000 | < 100 | –
Cc1ccc(-c2nc3cc(Nc4cccc(N5C[C@@H]6C[C@H]5CN6C)n4)ncc3s2)c(C)n1 [Example 129, N-[2-(2,6-Dimethylpyridin-3-yl)-[1,3]thiazolo[5,4-c]pyridin-6-yl]-6-[(1S,4S)-5-methyl-2,5-diazabicyclo[2.2.1]heptan-2-yl]pyridin-2-amine] | > 5000 | < 100 | –
CN1C[C@@H]2C[C@H]1CN2c1cccc(Nc2cc3nc(-c4cccc(C(=O)N5CCCC5)c4)sc3cn2)n1 [Example 130, 6-[(1S,4S)-5-Methyl-2,5-diazabicyclo[2.2.1]heptan-2-yl]-N-{2-[3-(pyrrolidine-1-carbonyl)phenyl]-[1,3]thiazolo[5,4-c]pyridin-6-yl}pyridin-2-amine] | 100 to 1000 | < 100 | –
CN1C[C@@H]2C[C@H]1CN2c1cccc(Nc2cc3nc(-c4cncc(S(C)(=O)=O)c4)sc3cn2)n1 [Example 131, N-[2-(5-Methanesulfonylpyridin-3-yl)-[1,3]thiazolo[5,4-c]pyridin-6-yl]-6-[(1S,4S)-5-methyl-2,5-diazabicyclo[2.2.1]heptan-2-yl]pyridin-2-amine] | 1000 to 5000 | < 100 | –
Cc1c(-c2nc3cc(Nc4cccc(N5C[C@@H]6C[C@H]5CN6C)n4)ncc3s2)cnc2c1NCCO2 [Example 134, N-(2-{8-Methyl-1H,2H,3H-pyrido[2,3-b][1,4]oxazin-7-yl}-[1,3]thiazolo[5,4-c]pyridin-6-yl)-6-[(1S,4S)-5-methyl-2,5-diazabicyclo[2.2.1]heptan-2-yl]pyridin-2-amine] | 1000 to 5000 | < 100 | –
Cc1ccncc1-c1nc2cc(Nc3cccc(N4C[C@@H]5C[C@H]4CN5C)n3)ncc2s1 [Example 139, 6-[(1S,4S)-5-Methyl-2,5-diazabicyclo[2.2.1]heptan-2-yl]-N-[2-(4-methylpyridin-3-yl)-[1,3]thiazolo[5,4-c]pyridin-6-yl]pyridin-2-amine] | 100 to 1000 | < 100 | –
CN(C)C(=O)c1cccc(-c2nc3cc(Nc4cccc(N5C[C@@H]6C[C@H]5CN6)n4)ncc3s2)c1 [Example 140, 3-[6-({6-[(1S,4S)-2,5-Diazabicyclo[2.2.1]heptan-2-yl]pyridin-2-yl}amino)-[1,3]thiazolo[5,4-c]pyridin-2-yl]-N,N-dimethylbenzamide] | 100 to 1000 | < 100 | –

Now from value to molecule:

IC50 [1] [nM] | IC50 (HPK1; [2]) [nM] | IC50 (HPK1; 5 nM HPK1, 200 μM ATP, read-out: Biochemical Potency (high ATP)) [nM] | Compound
1000 to 5000 | < 100 | – | Cc1cccnc1-c1nc2cc(Nc3cccc(N4CC5CCC4CN5C)n3)ncc2s1 (stereo not drawn) [Example 97, 6-{5-Methyl-2,5-diazabicyclo[2.2.2]octan-2-yl}-N-[2-(3-methylpyridin-2-yl)-[1,3]thiazolo[5,4-c]pyridin-6-yl]pyridin-2-amine]
> 5000 | < 100 | – | Cc1cccnc1-c1nc2cc(Nc3cccc(N4C[C@@H](C)N(C)[C@@H](C)C4)n3)ncc2s1 [Example 100, N-[2-(3-Methylpyridin-2-yl)-[1,3]thiazolo[5,4-c]pyridin-6-yl]-6-[(3R,5S)-3,4,5-trimethylpiperazin-1-yl]pyridin-2-amine]
< 100 | < 100 | – | CN1C[C@@H]2C[C@H]1CN2c1cccc(Nc2cc3nc(-c4nccn4C)sc3cn2)n1 [Example 108, N-[2-(1-Methyl-1H-imidazol-2-yl)-[1,3]thiazolo[5,4-c]pyridin-6-yl]-6-[(1S,4S)-5-methyl-2,5-diazabicyclo[2.2.1]heptan-2-yl]pyridin-2-amine]
1000 to 5000 | < 100 | < 100 | CN1C[C@@H]2C[C@H]1CN2c1nccc(Nc2cc3nc(-c4cccc(N5CC[C@H](O)C5)c4)sc3cn2)n1 [Example 123, (3S)-1-{3-[6-({2-[(1S,4S)-5-Methyl-2,5-diazabicyclo[2.2.1]heptan-2-yl]pyrimidin-4-yl}amino)-[1,3]thiazolo[5,4-c]pyridin-2-yl]phenyl}pyrrolidin-3-ol]
< 100 | < 100 | – | CN1C[C@@H]2C[C@H]1CN2c1cccc(Nc2cc3nc(-c4cccc(C(C)(C)O)c4)sc3cn2)n1 [Example 132, 2-{3-[6-({6-[(1S,4S)-5-Methyl-2,5-diazabicyclo[2.2.1]heptan-2-yl]pyridin-2-yl}amino)-[1,3]thiazolo[5,4-c]pyridin-2-yl]phenyl}propan-2-ol]
> 5000 | < 100 | – | CN1C[C@@H]2C[C@H]1CN2c1cccc(Nc2cc3nc(-c4cccc(C#N)c4)sc3cn2)n1 [Example 133, 3-[6-({6-[(1S,4S)-5-Methyl-2,5-diazabicyclo[2.2.1]heptan-2-yl]pyridin-2-yl}amino)-[1,3]thiazolo[5,4-c]pyridin-2-yl]benzonitrile]
1000 to 5000 | < 100 | – | CNC(=O)c1cccc(-c2nc3cc(Nc4cccc(N5C[C@@H]6C[C@H]5CN6C)n4)ncc3s2)c1 [Example 135, N-Methyl-3-[6-({6-[(1S,4S)-5-methyl-2,5-diazabicyclo[2.2.1]heptan-2-yl]pyridin-2-yl}amino)-[1,3]thiazolo[5,4-c]pyridin-2-yl]benzamide]
100 to 1000 | < 100 | – | CN(C)C(=O)c1cccc(-c2nc3cc(Nc4cccc(N5C[C@@H]6C[C@H]5CN6C)n4)ncc3s2)c1 [Example 137, N,N-Dimethyl-3-[6-({6-[(1S,4S)-5-methyl-2,5-diazabicyclo[2.2.1]heptan-2-yl]pyridin-2-yl}amino)-[1,3]thiazolo[5,4-c]pyridin-2-yl]benzamide]
100 to 1000 | < 100 | – | CS(=O)(=O)c1cccc(-c2nc3cc(Nc4cccc(N5C[C@@H]6C[C@H]5CN6)n4)ncc3s2)c1 [Example 141, 6-[(1S,4S)-2,5-Diazabicyclo[2.2.1]heptan-2-yl]-N-[2-(3-methanesulfonylphenyl)-[1,3]thiazolo[5,4-c]pyridin-6-yl]pyridin-2-amine]
